Read-outs that look alike come from different tables or passages of the source.
Assays:
[1] = tested on: MOLT-4; assay: SRB 48 h growth assay, Leukemia MOLT-4; format: cell-based, human; details: MOLT-4, Leukemia; for GI50 / CC50: Homo sapiens; for CC50: read-out: Log10 LC50 (converted)
[2] = tested on: eight renal cancer cell line (786-0, A498, ACHN, CAKI-1, SN12C, TK-10, UO-31 and RXF 393); assay: in vitro anticancer activity, renal panel; format: cell-based; details: Homo sapiens; eight renal cancer cell lines, exposure at least 48 h; read-out: in vitro anticancer activity, range over panel
[3] = tested on: SN12C; assay: SRB 48 h growth assay, Renal SN12C; format: cell-based, human; details: for GI50 / CC50: Homo sapiens; for CC50: read-out: Log10 LC50 (converted)
[4] = tested on: NCI-H460; assay: SRB 48 h growth assay, Non-small Cell Lung NCI-H460; format: cell-based, human; details: for GI50 / LC50: Homo sapiens; for LC50: read-out: Log10 LC50 (converted)
[5] = tested on: OVCAR-5; assay: SRB 48 h growth assay, Ovarian OVCAR-5; format: cell-based, human; details: OVCAR-5, Ovarian; for GI50 / CC50: Homo sapiens; for CC50: read-out: Log10 LC50 (converted)
[6] = tested on: CAKI-1; assay: SRB 48 h growth assay, Renal CAKI-1; format: cell-based, human; details: CAKI-1, Renal; for GI50 / CC50: Homo sapiens; for CC50: read-out: Log10 LC50 (converted)
[7] = tested on: HCT-15; assay: SRB 48 h growth assay, Colon HCT-15; format: cell-based, human; details: HCT-15, Colon; for GI50 / CC50: Homo sapiens; for CC50: read-out: Log10 LC50 (converted)
[8] = tested on: A498; assay: SRB 48 h growth assay, Renal A498; format: cell-based, human; details: for GI50 / CC50: Homo sapiens; for CC50: read-out: Log10 LC50 (converted)
[9] = tested on: MALME-3M; assay: SRB 48 h growth assay, Melanoma MALME-3M; format: cell-based, human; details: for GI50 / CC50: Homo sapiens; for CC50: read-out: Log10 LC50 (converted)
[10] = tested on: IGROV1; assay: SRB 48 h growth assay, Ovarian IGROV1; format: cell-based, human; details: for GI50 / CC50: Homo sapiens; for CC50: IGROV-1, read-out: Log10 LC50 (converted)
[11] = tested on: NCI-H322M; assay: SRB 48 h growth assay, Non-small Cell Lung NCI-H322M; format: cell-based, human; details: for GI50 / CC50: Homo sapiens; for CC50: read-out: Log10 LC50 (converted)
[12] = tested on: COLO 205; assay: SRB 48 h growth assay, Colon COLO 205; format: cell-based, human; details: COLO 205, Colon; for GI50 / CC50: Homo sapiens; for CC50: read-out: Log10 LC50 (converted)
[13] = tested on: SR; assay: SRB 48 h growth assay, Leukemia SR; format: cell-based, human; details: for GI50 / CC50: Homo sapiens; for CC50: read-out: Log10 LC50 (converted)
[14] = tested on: SF-268; assay: SRB 48 h growth assay, CNS SF-268; format: cell-based, human; details: SF-268, CNS; for GI50 / CC50: Homo sapiens; for CC50: read-out: Log10 LC50 (converted)
[15] = tested on: SF-539; assay: SRB 48 h growth assay, CNS SF-539; format: cell-based, human; details: SF-539, CNS; for GI50 / CC50: Homo sapiens; for CC50: read-out: Log10 LC50 (converted)
[16] = read-out: Growth Inhibition GI50
[17] = read-out: Log10 GI50 (converted)
[18] = IGROV-1, read-out: Growth Inhibition GI50
[19] = IGROV-1, read-out: Log10 GI50 (converted)

Compound: C#Cc1ccc(-n2c(/C=C/c3ccc(O)cc3)nc3ncccc3c2=O)cc1 [4b, (E)-3-(4-Ethynylphenyl)-2-(4-hydroxystyryl)pyrido[2,3-d]pyrimidin-4(3H)-one]
- GI50 [1, 16]: 7.35 µM
- GI50 [1, 17]: 7.41 µM
- CC50 [1]: > 100 µM
- Log10 TGI50 [1]: >−4.00
- GI50 [2]: 2.63 to 20.5 µM
- Log10 TGI50 [3]: >−4.00
- GI50 [3, 16]: 5.16 µM
- GI50 [3, 17]: 5.13 µM
- CC50 [3]: > 100 µM
- Log10 TGI50 [4]: −4.85
- GI50 [4, 16]: 3.33 µM
- GI50 [4, 17]: 3.31 µM
- LC50 [4]: > 100 µM
- GI50 [5, 16]: 32.3 µM
- GI50 [5, 17]: 32.4 µM
- CC50 [5]: > 100 µM
- Log10 TGI50 [5]: >−4.00
- Log10 TGI50 [6]: >−4.00
- GI50 [6, 16]: 4.15 µM
- GI50 [6, 17]: 4.17 µM
- CC50 [6]: > 100 µM
- Log10 TGI50 [7]: >−4.00
- GI50 [7, 16]: 4.65 µM
- GI50 [7, 17]: 4.68 µM
- CC50 [7]: > 100 µM
- Log10 TGI50 [8]: −5.16
- GI50 [8, 16]: 2.48 µM
- GI50 [8, 17]: 2.45 µM
- CC50 [8]: > 100 µM
- Log10 TGI50 [9]: >−4.00
- GI50 [9, 16]: 5.13 µM
- GI50 [9, 17]: 5.13 µM
- CC50 [9]: > 100 µM
- Log10 TGI50 [10]: −4.45
- GI50 [10, 18]: 4.69 µM
- GI50 [10, 19]: 4.68 µM
- CC50 [10]: > 100 µM
- Log10 TGI50 [11]: >−4.00
- GI50 [11, 16]: 5.58 µM
- GI50 [11, 17]: 5.62 µM
- CC50 [11]: > 100 µM
- Log10 TGI50 [12]: >−4.00
- GI50 [12, 16]: > 100 µM
- GI50 [12, 17]: > 100 µM
- CC50 [12]: > 100 µM
- Log10 TGI50 [13]: >−4.00
- GI50 [13, 16]: 3.54 µM
- GI50 [13, 17]: 3.55 µM
- CC50 [13]: > 100 µM
- GI50 [14, 16]: 5.24 µM
- GI50 [14, 17]: 5.25 µM
- CC50 [14]: > 100 µM
- Log10 TGI50 [14]: −4.17
- GI50 [15, 16]: 2.12 µM
- GI50 [15, 17]: 2.14 µM
- CC50 [15]: > 74.1 µM
- Log10 TGI50 [15]: −5.21

Compound: C#Cc1ccc(-n2c(/C=C/c3ccc(C(F)(F)F)cc3)nc3ncccc3c2=O)cc1 [4c, (E)-3-(4-Ethynylphenyl)-2-(4-(trifluoromethyl)styryl)pyrido[2,3-d]pyrimidin-4(3H)-one]
- GI50 [1, 16]: 3.01 µM
- GI50 [1, 17]: 3.02 µM
- CC50 [1]: > 100 µM
- Log10 TGI50 [1]: −5.06
- GI50 [2]: 1.69 to 4.08 µM
- Log10 TGI50 [3]: −5.25
- GI50 [3, 16]: 2.08 µM
- GI50 [3, 17]: 2.09 µM
- CC50 [3]: > 100 µM
- Log10 TGI50 [4]: −5.38
- GI50 [4, 16]: 1.98 µM
- GI50 [4, 17]: 2 µM
- LC50 [4]: 8.71 µM
- GI50 [5, 16]: 1.94 µM
- GI50 [5, 17]: 1.95 µM
- CC50 [5]: 6.61 µM
- Log10 TGI50 [5]: −5.45
- Log10 TGI50 [6]: −5.21
- GI50 [6, 16]: 2.26 µM
- GI50 [6, 17]: 2.24 µM
- CC50 [6]: > 100 µM
- Log10 TGI50 [7]: −5.43
- GI50 [7, 16]: 1.74 µM
- GI50 [7, 17]: 1.74 µM
- CC50 [7]: 7.76 µM
- Log10 TGI50 [8]: −5.24
- GI50 [8, 16]: 2.34 µM
- GI50 [8, 17]: 2.4 µM
- CC50 [8]: 24 µM
- Log10 TGI50 [9]: −5.45
- GI50 [9, 16]: 1.64 µM
- GI50 [9, 17]: 1.66 µM
- CC50 [9]: 7.76 µM
- Log10 TGI50 [10]: −5.40
- GI50 [10, 18]: 1.96 µM
- GI50 [10, 19]: 1.95 µM
- CC50 [10]: 8.32 µM
- Log10 TGI50 [11]: −5.15
- GI50 [11, 16]: 2.25 µM
- GI50 [11, 17]: 2.24 µM
- CC50 [11]: 27.5 µM
- Log10 TGI50 [12]: −5.35
- GI50 [12, 16]: 2.23 µM
- GI50 [12, 17]: 2.24 µM
- CC50 [12]: 8.91 µM
- Log10 TGI50 [13]: −5.09
- GI50 [13, 16]: 2 µM
- GI50 [13, 17]: 2 µM
- CC50 [13]: > 100 µM
- GI50 [14, 16]: 2.27 µM
- GI50 [14, 17]: 2.29 µM
- CC50 [14]: 24.5 µM
- Log10 TGI50 [14]: −5.23
- GI50 [15, 16]: 1.68 µM
- GI50 [15, 17]: 1.66 µM
- CC50 [15]: 6.03 µM
- Log10 TGI50 [15]: −5.50

Compound: C#Cc1ccc(-n2c(/C=C/c3cc(OC)c(OC)c(OC)c3)nc3ncccc3c2=O)cc1 [4q, (E)-3-(4-Ethynylphenyl)-2-(3,4,5-trimethoxystyryl)pyrido[2,3-d]pyrimidin-4(3H)-one]
- Log10 TGI50 [3]: >−4.00
- GI50 [3, 16]: 20.5 µM
- GI50 [3, 17]: 20.4 µM
- CC50 [3]: > 100 µM
- Log10 TGI50 [4]: −4.60
- GI50 [4, 16]: 4.11 µM
- GI50 [4, 17]: 4.07 µM
- GI50 [5, 16]: > 100 µM
- GI50 [5, 17]: > 100 µM
- CC50 [5]: > 100 µM
- Log10 TGI50 [5]: >−4.00
- Log10 TGI50 [6]: >−4.00
- GI50 [6, 16]: 6.07 µM
- GI50 [6, 17]: 6.03 µM
- CC50 [6]: > 100 µM
- Log10 TGI50 [7]: >−4.00
- GI50 [7, 16]: 5.58 µM
- GI50 [7, 17]: 5.62 µM
- CC50 [7]: > 100 µM
- Log10 TGI50 [8]: −5.01
- GI50 [8, 16]: 2.63 µM
- GI50 [8, 17]: 2.63 µM
- CC50 [8]: > 100 µM
- Log10 TGI50 [9]: −4.15
- GI50 [9, 16]: 9.74 µM
- GI50 [9, 17]: 9.77 µM
- CC50 [9]: > 100 µM
- Log10 TGI50 [10]: >−4.00
- GI50 [10, 18]: 6.08 µM
- GI50 [10, 19]: 6.03 µM
- CC50 [10]: > 100 µM
- Log10 TGI50 [11]: >−4.00
- GI50 [11, 16]: 14.1 µM
- GI50 [11, 17]: 14.1 µM
- CC50 [11]: > 100 µM
- Log10 TGI50 [12]: −4.92
- GI50 [12, 16]: 3.19 µM
- GI50 [12, 17]: 3.16 µM
- CC50 [12]: > 100 µM
- GI50 [14, 16]: 5.33 µM
- GI50 [14, 17]: 5.37 µM
- CC50 [14]: > 100 µM
- Log10 TGI50 [14]: −4.01
- GI50 [15, 16]: 4.57 µM
- GI50 [15, 17]: 4.57 µM
- CC50 [15]: > 100 µM
- Log10 TGI50 [15]: −4.42
